Source: patent US20160303089A1, “COMPOUND PERTAINING TO NEUROPOIESIS AND DRUG COMPOSITION” (KYOTO UNIVERSITY, priority 2013, published 2016)

Experiments:
DYRK1A [1] = target: T1, DYRK1A (Homo sapiens, UniProt Q13627); assay: In vitro assay of the inhibition of protein phosphorylation activity; assay type: biochemical
DYRKIB = DYRKIB (Homo sapiens, UniProt Q9Y463); assay: as above; assay type: biochemical
DYRK2 [2] = target: T2, DYRK2 (Homo sapiens, UniProt Q92630); assay: as above; assay type: biochemical
T2 construct: expressed in transfected cells; host or cells: HEK293 Flp-In
T2 sequence (Q92630 1-601): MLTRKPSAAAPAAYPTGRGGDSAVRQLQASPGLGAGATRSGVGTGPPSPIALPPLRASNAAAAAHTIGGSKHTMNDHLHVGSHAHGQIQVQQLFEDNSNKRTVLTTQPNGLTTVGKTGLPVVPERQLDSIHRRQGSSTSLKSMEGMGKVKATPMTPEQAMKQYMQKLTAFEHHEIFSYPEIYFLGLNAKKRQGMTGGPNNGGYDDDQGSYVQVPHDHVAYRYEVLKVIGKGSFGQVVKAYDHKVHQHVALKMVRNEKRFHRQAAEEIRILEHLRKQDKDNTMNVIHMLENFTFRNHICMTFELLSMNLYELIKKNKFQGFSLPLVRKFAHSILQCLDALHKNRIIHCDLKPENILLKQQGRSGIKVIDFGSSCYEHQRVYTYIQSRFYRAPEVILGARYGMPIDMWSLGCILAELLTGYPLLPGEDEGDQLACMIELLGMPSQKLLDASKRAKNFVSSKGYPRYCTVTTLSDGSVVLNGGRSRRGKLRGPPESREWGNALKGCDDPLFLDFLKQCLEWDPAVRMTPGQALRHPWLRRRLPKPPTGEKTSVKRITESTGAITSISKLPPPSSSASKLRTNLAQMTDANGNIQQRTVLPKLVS

DYRK3 = target: T3, DYRK3 (Homo sapiens, UniProt O43781); assay: as above; assay type: biochemical
T3 sequence (O43781 1-588): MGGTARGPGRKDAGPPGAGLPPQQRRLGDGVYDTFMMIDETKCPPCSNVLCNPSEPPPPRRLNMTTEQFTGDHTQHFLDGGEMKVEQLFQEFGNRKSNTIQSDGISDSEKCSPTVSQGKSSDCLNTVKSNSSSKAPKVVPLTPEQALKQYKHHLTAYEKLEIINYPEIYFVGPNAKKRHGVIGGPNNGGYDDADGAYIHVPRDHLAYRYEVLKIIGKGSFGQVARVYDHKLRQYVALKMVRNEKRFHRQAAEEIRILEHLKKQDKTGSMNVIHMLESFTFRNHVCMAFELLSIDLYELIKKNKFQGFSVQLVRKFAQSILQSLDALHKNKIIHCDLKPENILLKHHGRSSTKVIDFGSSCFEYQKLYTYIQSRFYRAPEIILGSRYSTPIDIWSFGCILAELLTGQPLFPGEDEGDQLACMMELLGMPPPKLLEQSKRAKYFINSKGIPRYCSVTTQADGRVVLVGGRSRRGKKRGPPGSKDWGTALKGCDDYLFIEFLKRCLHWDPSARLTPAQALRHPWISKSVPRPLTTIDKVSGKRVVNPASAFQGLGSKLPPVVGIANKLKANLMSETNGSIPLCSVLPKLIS

CLK1 = CLK1 (Homo sapiens, UniProt P49759); assay: as above; assay type: biochemical
CLK2 = CLK2 (Homo sapiens, UniProt P49760); assay: as above; assay type: biochemical
CLK3 = CLK3 (Homo sapiens, UniProt P49761); assay: as above; assay type: biochemical
[3] = tested on: phosphorylation of tau protein; assay: Tau phosphorylation in brain, acute cold water stress model (western blotting); assay type: in vivo; settings: administered 30 minutes before cold water stress (10 minutes); brains collected 5 minutes later
Procedure: Further, the study was conducted to investigate whether the compounds 1 to 2 inhibited the DYRK activity in the animal individuals in vivo by using phosphorylation of tau protein due to acute cold water stress as a marker. The animals were exposed to cold water stress for 10 minutes, and their brains were collected 5 minutes later. Then, the phosphorylation of the tau protein in the brains was confirmed by western blotting. Consequently, the phosphorylation of the tau protein was enhanced by the acute cold water stress. When the compound 1 or the compound 2 was administered to the animal individuals 30 minutes before they underwent the cold water stress, the tau phosphorylation caused by the cold water stress was inhibited.

[4] = tested on: neural stem cells in the dentate gyrus of the hippocampus; assay: Neurogenesis in dentate gyrus of hippocampus of mice (BrdU positive cells); assay type: in vivo, C57BL/6J mice; settings: oral, 30 mg/kg and 100 mg/kg for 10 or 30 days; depended on the dosage; compared to solvent control
Procedure: The effect of the compound 2 on neurogenesis in animal individuals (rodents) was studied. The subgranular zone of the dentate gyrus of the hippocampus is a region where neurogenesis occurs. In this region, 5-bromo-2′-deoxyuridine (BrdU) was used as a cell proliferation marker to specifically detect proliferating cells and quantitatively compare the number of proliferating cells. Specifically, the experiments were performed in the following manner. The compound 2 was prepared with a carboxymethyl cellulose solvent and orally administered repeatedly to 9-week-old male C57BL/6J mice (each weighing 25 g) in a dosage of 30 mg/kg and 100 mg/kg for 10 or 30 days. On the last day of the administration, 150 mg/kg of BrdU were intraperitoneally injected into the mice, and the samples were collected 24 hours later by perfusion fixation. Then, coronal sections of 50 μm were prepared by a microtome. After the denaturation of DNA by 1.5 N hydrochloric acid, an anti-BrdU antibody was used to detect BrdU that had been incorporated into the proliferating neural stem cells.

DYRK1B = target: T4, DYRK1B (Homo sapiens, UniProt Q9Y463); assay: Cyclin D1 expression in HEK293 Flp-In cell line with inducible DYRK expression (western blotting); assay type: cell-based
T4 construct: expressed in transfected cells; host or cells: HEK293 Flp-In
Procedure: (§1) Using cell lines that can induce the expression of DYRKIA, DYRKIB, and DYRK2 by the addition of a drug, the expression level of cyclin D1 was examined when DYRK was overexpressed (see FIG. 8). Specifically, the experiments were performed in the following manner.
(§2) A HEK293 Flp-In cell system was used to prepare cell lines that can induce the expression of each of DYRKIA, DYRK1B, and DYRK2 of the DYRK family by the addition of a drug. The cells were treated with the drug for 16 hours to induce the expression of DYRK, and then cultured in the presence of the compound 2 (5 μM) for 4 hours. After the cells were collected, the expression level of cyclin D1 was analyzed by western blotting (see FIG. 8).

DYRK2 [5] = target: T2, DYRK2; assay: as above; assay type: cell-based
Procedure: as §1, §2

DYRKIA = target: T5, DYRKIA (Homo sapiens, UniProt Q13627); assay: as above; assay type: cell-based
T5 construct: expressed in transfected cells; host or cells: HEK293 Flp-In
Procedure: as §1, §2

DYRK1A [6] = target: T1, DYRK1A; assay: Tau phosphorylation in cell lines with induced expression of DYRK1A and tau protein (western blotting); assay type: cell-based; set-up: dose or concentration left out as unconfirmed; settings: compound for 4 hours after induced expression of DYRK1A and tau
Procedure: Moreover, the study was conducted to investigate whether the compound 3 inhibited the DYRK activity in the cells in vivo by using phosphorylation of tau protein (substrate) as a marker. First, cell lines that can induce the expression of DYRK1A and a tau protein by a drug were established. The cell lines were subjected to the drug treatment to induce the expression of DYRKIA and the tau protein. Then, the cells were treated with the compound 3 […] for 4 hours. After the cells were collected, the phosphorylation of the tau protein was detected by western blotting. The results confirmed that the treatment of the cells with the compound 3 inhibited the tau phosphorylation.

T4 sequence (Q9Y463 whole entry, species assumed): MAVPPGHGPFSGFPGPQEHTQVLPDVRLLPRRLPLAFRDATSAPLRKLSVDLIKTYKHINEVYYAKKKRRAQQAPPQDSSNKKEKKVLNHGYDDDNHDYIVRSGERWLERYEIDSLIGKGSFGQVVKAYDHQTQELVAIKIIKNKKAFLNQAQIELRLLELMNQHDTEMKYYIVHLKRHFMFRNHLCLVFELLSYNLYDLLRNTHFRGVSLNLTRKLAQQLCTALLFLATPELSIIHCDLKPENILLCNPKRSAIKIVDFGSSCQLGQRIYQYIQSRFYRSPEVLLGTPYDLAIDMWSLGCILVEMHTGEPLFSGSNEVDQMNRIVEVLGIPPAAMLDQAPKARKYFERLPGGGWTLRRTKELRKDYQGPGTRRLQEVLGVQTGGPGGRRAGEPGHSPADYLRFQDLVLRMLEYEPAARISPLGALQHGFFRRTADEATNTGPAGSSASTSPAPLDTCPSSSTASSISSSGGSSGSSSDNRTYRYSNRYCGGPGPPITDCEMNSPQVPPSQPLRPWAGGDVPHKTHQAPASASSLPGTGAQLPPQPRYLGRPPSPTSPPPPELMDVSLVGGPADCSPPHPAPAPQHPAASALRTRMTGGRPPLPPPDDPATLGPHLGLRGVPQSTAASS
Sequence of CLK2 (P49760 whole entry, species assumed): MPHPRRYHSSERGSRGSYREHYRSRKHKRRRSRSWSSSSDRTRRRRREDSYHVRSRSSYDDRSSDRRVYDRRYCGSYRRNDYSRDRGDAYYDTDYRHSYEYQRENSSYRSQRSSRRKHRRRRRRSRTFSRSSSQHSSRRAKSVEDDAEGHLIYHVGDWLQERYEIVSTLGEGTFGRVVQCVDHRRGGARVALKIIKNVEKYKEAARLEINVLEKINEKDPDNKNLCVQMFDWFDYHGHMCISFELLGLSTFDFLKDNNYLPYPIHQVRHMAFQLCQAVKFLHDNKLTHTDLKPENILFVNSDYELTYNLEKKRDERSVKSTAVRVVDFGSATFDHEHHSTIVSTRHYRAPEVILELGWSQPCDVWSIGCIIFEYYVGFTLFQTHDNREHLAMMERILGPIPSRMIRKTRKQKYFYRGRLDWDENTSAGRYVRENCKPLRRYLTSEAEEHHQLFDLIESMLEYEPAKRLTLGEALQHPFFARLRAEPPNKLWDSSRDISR
Sequence of DYRKIB (Q9Y463 whole entry): as the sequence (Q9Y463 whole entry, species assumed) above
Sequence of CLK3 (P49761 whole entry, species assumed): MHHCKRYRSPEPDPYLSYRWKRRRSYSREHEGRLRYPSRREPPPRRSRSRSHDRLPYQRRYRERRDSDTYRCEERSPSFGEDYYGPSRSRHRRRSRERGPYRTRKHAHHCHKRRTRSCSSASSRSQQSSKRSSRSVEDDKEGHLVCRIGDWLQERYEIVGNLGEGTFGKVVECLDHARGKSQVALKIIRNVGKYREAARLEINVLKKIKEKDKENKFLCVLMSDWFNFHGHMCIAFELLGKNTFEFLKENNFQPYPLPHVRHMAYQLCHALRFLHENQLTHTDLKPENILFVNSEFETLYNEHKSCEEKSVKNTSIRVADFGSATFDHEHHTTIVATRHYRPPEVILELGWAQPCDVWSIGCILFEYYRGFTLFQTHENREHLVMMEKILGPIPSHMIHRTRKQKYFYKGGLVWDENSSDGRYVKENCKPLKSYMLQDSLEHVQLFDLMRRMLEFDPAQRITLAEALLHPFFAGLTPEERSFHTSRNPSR
Sequence of CLK1 (P49759 whole entry): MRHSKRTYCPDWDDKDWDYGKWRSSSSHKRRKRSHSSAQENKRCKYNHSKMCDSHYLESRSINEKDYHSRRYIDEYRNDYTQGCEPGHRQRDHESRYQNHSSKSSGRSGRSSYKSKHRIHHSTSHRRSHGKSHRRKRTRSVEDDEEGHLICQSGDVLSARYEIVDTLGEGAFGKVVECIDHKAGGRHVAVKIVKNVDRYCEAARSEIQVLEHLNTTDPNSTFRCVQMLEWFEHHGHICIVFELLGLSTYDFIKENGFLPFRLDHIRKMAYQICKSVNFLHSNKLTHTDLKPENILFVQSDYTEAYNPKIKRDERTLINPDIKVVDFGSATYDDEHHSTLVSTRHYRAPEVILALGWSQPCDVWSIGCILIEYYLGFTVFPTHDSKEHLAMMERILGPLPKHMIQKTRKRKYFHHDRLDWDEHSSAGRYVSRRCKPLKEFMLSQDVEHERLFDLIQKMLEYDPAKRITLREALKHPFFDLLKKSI

inhibition of the DYRK1A activity (DYRK1A [1]) [%]	inhibition of the DYRKIB activity (DYRKIB) [%]	inhibition of the DYRK2 activity (DYRK2 [2]) [%]	inhibition of the DYRK3 activity (DYRK3) [%]	inhibition of the CLK1 activity (CLK1) [%]	inhibition of the CLK2 activity (CLK2) [%]	inhibition of the CLK3 activity (CLK3) [%]	expression level of cyclin D1 (DYRK1B; DYRK1B cell line, compound 5 μM for 4 hours, lane 6 of FIG. 8)	reduction in cyclin D1 by inducing the expression of DYRK (DYRK1B; DYRK1B expression induced 16 hours, then compound 5 μM for 4 hours, lane 8 of FIG. 8)	expression level of cyclin D1 (DYRK2 [5]; DYRK2 cell line, compound 5 μM for 4 hours, lane 10 of FIG. 8)	reduction in cyclin D1 by inducing the expression of DYRK (DYRK2 [5]; DYRK2 expression induced 16 hours, then compound 5 μM for 4 hours, lane 12 of FIG. 8)	expression level of cyclin D1 (DYRKIA; DYRKIA cell line, compound 5 μM for 4 hours, lane 2 of FIG. 8)	reduction in cyclin D1 by inducing the expression of DYRK (DYRKIA; DYRKIA expression induced 16 hours, then compound 5 μM for 4 hours, lane 4 of FIG. 8)	SMILES	tau phosphorylation caused by the cold water stress (brain) [3]	number of proliferating cells (BrdU positive) in the subgranular zone of the dentate gyrus of the hippocampus [4]	tau phosphorylation in cells (DYRK1A [6])
98	99	100	100	99	98	80							CCN1/C(=C/C(C)=O)Sc2ccc3c(c21)CCO3 [compound 1, (Z)-1-[1-ethyl-7,8-dihydrobenzofuro[4,5-d]thiazol-2(1H)-ylidene]propan-2-one]	inhibited		
							increased	corrected	increased	corrected	increased	corrected	CCN1/C(=C/C(C)=O)Sc2ccc3occc3c21 [compound 2, (Z)-1-[1-ethyl-7,8-benzofuro[4,5-d]thiazol-2(1H)-ylidene]propan-2-one]	inhibited	significantly large	
													COc1ccc2c([nH]c3c(C)nccc32)c1C#C[Si](C)(C)C [compound 3, 8-[2-(trimethylsilyl)ethynyl]harmine]			inhibited
